Measurements published in patent publication US20130158066A1, “4-AZAINDOLE INHIBITORS OF CRAC” (Hoffmann-La Roche Inc., priority 2011, published 2013).

System: IL-2 production in Jurkat cell
Assay: Jurkat IL-2 Production Assay
Assay type: cell-based
Conditions: Homo sapiens, Jurkat cell (ATCC), 18-20 h incubation, serum/stimulant condition (1% FBS/PHA or 30% FBS/PMA-ionomycin) not given
Description: Jurkat IL-2 Production Assay
Jurkat cell (ATCC) was grown in RPMI 1640 with 10% FBS and 1% penicillin/streptomycin. The cell density was kept at 1.2˜1.8×10^6/mL in culture flask before seeding into culture plate, and the cell density in the plate was 0.5×10^6/[…]/well.
RPMI 1640 with 1% FBS or 30% FBS for high serum assay.
serial dilution was done in 100% DMSO, and intermediate dilution was done with RPMI 1640 medium with 1% FBS. The DMSO final concentration in culture well was 0.25%.
PHA (Sigma#L9017-10MG) was used for the assay with 1% FBS in culture medium, and added after 10 minutes exposure of cell to compound/DMSO. The PHA final concentration in culture well was 5 μg/mL. PMA (Sigma# P-8139 5MG)/Ionomycin (Sigma# I0634-5MG) was used for the assay with 30% FBS in culture medium, and added at same time point as the 1% FBS culture assay. The final concentration of PMA was 50 ng/mL, and Ionomycin final concentration was 500 ng/mL.
at 37° C. with 5% CO2 and 95% humidity for 18 h ˜20 h.
IC50 was calculated with the data analysis software XLfit4, General Pharmacology model 251.

IC50 [nM] | Structure (SMILES)
246 | Cc1cc(Cl)ncc1-c1ccc2[nH]c(-c3c(F)cccc3Cl)cc2n1 [Example 2, 2-(2-Chloro-6-fluoro-phenyl)-5-(6-chloro-4-methyl-pyridin-3-yl)-1H-pyrrolo[3,2b]pyridine]
94 | Cn1nc(C(F)(F)F)cc1-c1ccc2[nH]c(-c3c(F)cccc3Cl)cc2n1 [Example 3, 2-(2-Chloro-6-fluoro-phenyl)-5-(2-methyl-5-trifluoromethyl-2H-pyrazol-3-yl)-1H-pyrrolo[3,2-b]pyridine]
80 | Cc1cc(C(F)(F)F)ccc1-c1ccc2[nH]c(-c3c(F)cccc3Cl)cc2n1 [Example 4, 2-(2-chloro-6-fluorophenyl)-5-(2-methyl-4-(trifluoromethyl)phenyl)-1H-pyrrolo[3,2-b]pyridine]
347 | Cc1cc(C#N)ccc1-c1ccc2[nH]c(-c3c(F)cccc3Cl)cc2n1 [Example 5, 4-(2-(2-chloro-6-fluorophenyl)-1H-pyrrolo[3,2-b]pyridin-5-yl)-3-methylbenzonitrile]
92 | Cc1cc(S(=O)(=O)N(C)C)ccc1-c1ccc2[nH]c(-c3c(F)cccc3Cl)cc2n1 [Example 6, 4-(2-(2-chloro-6-fluorophenyl)-1H-pyrrolo[3,2-b]pyridin-5-yl)-N,N,3-trimethylbenzenesulfonamide]
300 | Cc1cc(S(=O)(=O)N(C)C)ccc1-c1ccc2[nH]c(-c3ccccc3Cl)cc2n1 [Example 7, 4-[2-(2-Chloro-phenyl)-1H-pyrrolo[3,2-b]pyridin-5-yl]-3,N,N-trimethyl-benzenesulfonamide]
147 | Cn1nc(C(F)(F)F)cc1-c1ccc2[nH]c(-c3ccc(F)cc3Cl)cc2n1 [Example 8, 2-(2-Chloro-4-fluoro-phenyl)-5-(2-methyl-5-trifluoromethyl-2H-pyrazol-3-yl)-1H-pyrrolo[3,2-b]pyridine]
98 | Cc1cc(S(=O)(=O)N(C)C)ccc1-c1ccc2[nH]c(-c3ccc(F)cc3Cl)cc2n1 [Example 9, 4-[2-(2-Chloro-4-fluoro-phenyl)-1H-pyrrolo[3,2-b]pyridin-5-yl]-3,N,N-trimethyl-benzenesulfonamide]
134 | Cc1cc(S(=O)(=O)N(C)C)ccc1-c1ccc2[nH]c(-c3c(F)cccc3F)cc2n1 [Example 10, 4-[2-(2,6-Difluoro-phenyl)-1H-pyrrolo[3,2-b]pyridin-5-yl]-3,N,N-trimethyl-benzenesulfonamide]
767 | Cc1cc(C#N)ccc1-c1ccc2[nH]c(-c3c(F)cccc3F)cc2n1 [Example 11, 4-[2-(2,6-Difluoro-phenyl)-1H-pyrrolo[3,2-b]pyridin-5-yl]-3-methyl-benzonitrile]
200 | Cn1nc(C(F)(F)F)cc1-c1ccc2[nH]c(-c3c(F)cccc3F)cc2n1 [Example 12, 2-(2,6-Difluoro-phenyl)-5-(2-methyl-5-trifluoromethyl-2H-pyrazol-3-yl)-1H-pyrrolo[3,2-b]pyridine]
169 | COc1cc(F)c(-c2cc3nc(-c4ccc(S(=O)(=O)N(C)C)cc4C)ccc3[nH]2)c(F)c1 [Example 13, 4-(2-(2,6-difluoro-4-methoxyphenyl)-1H-pyrrolo[3,2-b]pyridin-5-yl)-N,N,3-trimethylbenzenesulfonamide]
